Laboratory results from US10385057B2, “Pyrazole compounds and methods of making and using same” (Lundbeck La Jolla Research Center, Inc., priority 2015, dated 2019).

Key:
MAGL = target: T1, MAGL (Mus musculus, UniProt O35678); experiment: In vitro competitive activity-based protein profiling, mouse MAGL; format: biochemical; settings: for inhibition at 1 µM: read-out: MAGL % inh. 1 μM (mouse)
T1 construct: mouse brain membrane fraction or cell lysates for mouse assays; from tissue
T1 sequence (O35678 1-303): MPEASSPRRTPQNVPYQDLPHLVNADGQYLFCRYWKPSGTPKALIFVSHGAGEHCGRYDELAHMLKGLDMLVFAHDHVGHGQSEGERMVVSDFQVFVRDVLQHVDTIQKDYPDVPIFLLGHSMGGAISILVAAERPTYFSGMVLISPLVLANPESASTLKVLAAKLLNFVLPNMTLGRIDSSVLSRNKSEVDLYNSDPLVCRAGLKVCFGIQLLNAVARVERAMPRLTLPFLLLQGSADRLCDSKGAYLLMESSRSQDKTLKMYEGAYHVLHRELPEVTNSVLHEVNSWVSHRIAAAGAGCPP
Experimental: (§1) In Vitro Competitive Activity-Based Protein Profiling.
(§2) Proteomes (mouse brain membrane fraction or cell lysates for mouse assays; human prefrontal cortex or cell membrane fractions for human assays) (50 μL, 1.0 mg/mL total protein concentration) were preincubated with varying concentrations of inhibitors at 37° C. After 30 min, FP-Rh or HT-01 (1.0 μL, 50 μM in DMSO) was added and the mixture was incubated for another 30 min at 37° C. Reactions were quenched with SDS loading buffer (15 μL—4×) and run on SDS-PAGE. Following gel imaging, serine hydrolase activity was determined by measuring fluorescent intensity of gel bands corresponding to MAGL and FAAH using ImageJ 1.43u software.

FAAH = target: T2, FAAH (Mus musculus, UniProt O08914); experiment: In vitro competitive activity-based protein profiling, mouse FAAH; format: biochemical; settings: for inhibition at 1 µM: read-out: FAAH % inh. 1 μM (mouse)
T2 construct: mouse brain membrane fraction or cell lysates for mouse assays; from tissue
T2 sequence (O08914 1-579): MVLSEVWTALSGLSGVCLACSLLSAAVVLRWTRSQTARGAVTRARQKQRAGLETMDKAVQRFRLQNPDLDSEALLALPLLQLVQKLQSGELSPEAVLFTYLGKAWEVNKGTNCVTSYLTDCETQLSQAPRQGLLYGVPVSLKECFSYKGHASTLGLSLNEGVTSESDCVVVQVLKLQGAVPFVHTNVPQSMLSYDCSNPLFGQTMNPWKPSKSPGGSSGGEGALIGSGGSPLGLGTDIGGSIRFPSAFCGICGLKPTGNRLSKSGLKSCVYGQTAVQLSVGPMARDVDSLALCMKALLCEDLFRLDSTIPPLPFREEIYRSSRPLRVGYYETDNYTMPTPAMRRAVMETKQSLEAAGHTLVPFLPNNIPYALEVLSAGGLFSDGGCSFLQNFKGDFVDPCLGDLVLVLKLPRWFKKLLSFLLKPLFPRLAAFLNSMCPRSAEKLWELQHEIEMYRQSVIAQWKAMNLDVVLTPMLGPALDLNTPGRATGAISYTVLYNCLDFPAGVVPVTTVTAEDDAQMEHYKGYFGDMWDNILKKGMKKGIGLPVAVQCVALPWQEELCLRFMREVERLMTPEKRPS
Experimental: as §1, §2

Row | inhibition at 1 µM (MAGL) [%] | inhibition at 1 µM (FAAH; 1 μM) [%] | IC50 (MAGL) [µM] | IC50 (FAAH) [µM] | Structure (SMILES) | MAGL % inh. 1 μM (mouse) (MAGL) | FAAH % inh. 1 μM (mouse) (FAAH; 1 μM)
1 | ≥ 75 | ≥ 75 | ≤ 0.1 | ≤ 0.1 | CN(Cc1cccc(Cl)c1)[C@@H]1C[C@@H]2CN(C(=O)n3cc(Cl)cn3)C[C@@H]2C1 [Example 65, (4-chloro-1H-pyrazol-1-yl)(cis-5-((3-chlorobenzyl)(methyl)amino)hexahydrocyclopenta[c]pyrrol-2(1H)-yl)methanone] |  | 
2 | ≥ 75 | ≥ 75 | 0.1 to 1 | ≤ 0.1 | O=C(N1C[C@H]2C[C@@H](NCc3cccc(Cl)c3)C[C@H]2C1)n1cc(Cl)cn1 [Example 66, (4-chloro-1H-pyrazol-1-yl)(cis-5-((3-chlorobenzyl)amino)hexahydrocyclopenta[c]pyrrol-2(1H)-yl)methanone] |  | 
3 | ≥ 75 | ≥ 75 | 0.1 to 1 | ≤ 0.1 | CN(Cc1ccc(Cl)cc1)[C@@H]1C[C@@H]2CN(C(=O)n3cc(Cl)cn3)C[C@@H]2C1 [Example 67, (4-chloro-1H-pyrazol-1-yl)(cis-5-((4-chlorobenzyl)(methyl)amino)hexahydrocyclopenta[c]pyrrol-2(1H)-yl)methanone] |  | 
4 | ≥ 75 | ≥ 75 |  |  | CN(Cc1ccc(Cl)cc1)[C@H]1C[C@@H]2CN(C(=O)n3cc(Cl)cn3)C[C@@H]2C1 [Example 68, (4-chloro-1H-pyrazol-1-yl)(trans-5-((4-chlorobenzyl)(methyl)amino)hexahydrocyclopenta[c]pyrrol-2(1H)-yl)methanone] |  | 
5 | ≥ 75 | ≥ 75 | ≤ 0.1 | ≤ 0.1 | CC(=O)N(Cc1ccc(Cl)cc1)[C@@H]1C[C@@H]2CN(C(=O)n3cc(Cl)cn3)C[C@@H]2C1 [Example 69, N-(cis-2-(4-chloro-1H-pyrazole-1-carbonyl)octahydrocyclopenta[c]pyrrol-5-yl)-N-(4-chlorobenzyl)acetamide] |  | 
6 | ≥ 75 | 50 to 75 |  |  | CC(=O)N(Cc1ccc(Cl)cc1)[C@H]1C[C@@H]2CN(C(=O)n3cc(Cl)cn3)C[C@@H]2C1 [Example 70, N-(trans-2-(4-chloro-1H-pyrazole-1-carbonyl)octahydrocyclopenta[c]pyrrol-5-yl)-N-(4-chlorobenzyl)acetamide] |  | 
7 | ≥ 75 | ≥ 75 | 0.1 to 1 | 0.1 to 1 | O=C(N1C[C@H]2C[C@@H](NCc3ccc(Cl)cc3)C[C@H]2C1)n1cc(Cl)cn1 [Example 71, (4-chloro-1H-pyrazol-1-yl)(cis-5-((4-chlorobenzyl)amino)hexahydrocyclopenta[c]pyrrol-2(1H)-yl)methanone] |  | 
8 | ≥ 75 | ≥ 75 | ≤ 0.1 | ≤ 0.1 | CN(Cc1cccc(Cl)c1)[C@H]1C[C@@H]2CN(C(=O)n3cc(Cl)cn3)C[C@@H]2C1 [Example 72, (4-chloro-1H-pyrazol-1-yl)(trans-5-((3-chlorobenzyl)(methyl)amino)hexahydrocyclopenta[c]pyrrol-2(1H)-yl)methanone] |  | 

Further lines, the compound ahead of its results:

Row | Structure (SMILES) | inhibition at 1 µM (MAGL) [%] | inhibition at 1 µM (FAAH; 1 μM) [%] | IC50 (MAGL) [µM] | IC50 (FAAH) [µM] | MAGL % inh. 1 μM (mouse) (MAGL) | FAAH % inh. 1 μM (mouse) (FAAH; 1 μM)
9 | CNC(=O)c1cnn(C(=O)N2CCC3(CCN(Cc4cc(Cl)cc(C(F)(F)F)c4)C3)C2)c1 (stereo not shown) [Example 44, 1-(7-(3-chloro-5-(trifluoromethyl)benzyl)-2,7-diazaspiro[4.4]nonane-2-carbonyl)-N-methyl-1H-pyrazole-4-carboxamide] | ≥ 75 | ≥ 75 |  |  |  | 
10 | CNC(=O)c1cnn(C(=O)N2CCC3(CCN(Cc4ccc(N5CCOCC5)cc4C(F)(F)F)C3)C2)c1 (stereo not shown) [Example 49, N-methyl-1-(7-(4-morpholino-2-(trifluoromethyl)benzyl)-2,7-diazaspiro[4.4]nonane-2-carbonyl)-1H-pyrazole-4-carboxamide] | ≥ 75 | ≥ 75 |  |  |  | 
11 | O=C(c1cnn(C(=O)N2CCC3(CCN(Cc4ccc(N5CCOCC5)cc4C(F)(F)F)C3)C2)c1)N1CCOCC1 (stereo not shown) [Example 51, (4-(morpholine-4-carbonyl)-1H-pyrazol-1-yl)(7-(4-morpholino-2-(trifluoromethyl)benzyl)-2,7-diazaspiro[4.4]nonan-2-yl)methanone] | 25 to 50 | ≥ 75 |  |  |  | 
12 | O=C(c1cnn(C(=O)N2CCC3(CCN(Cc4ccc(N5CCOCC5)cc4C(F)(F)F)C3)C2)c1)N1CCN(C2CC2)CC1 (stereo not shown) [Example 52, (4-cyclopropylpiperazin-1-yl)(1-(7-(4-morpholino-2-(trifluoromethyl)benzyl)-2,7-diazaspiro[4.4]nonane-2-carbonyl)-1H-pyrazol-4-yl)methanone] | ≥ 75 | ≥ 75 |  |  |  | 
13 | CN(Cc1ccc(C(F)(F)F)cc1)[C@@H]1C[C@@H]2CN(C(=O)n3cc(C(=O)N4CCOCC4)cn3)C[C@@H]2C1 [Example 53, (cis-5-(methyl(4-(trifluoromethyl)benzyl)amino)hexahydrocyclopenta[c]pyrrol-2(1H)-yl)(4-(morpholine-4-carbonyl)-1H-pyrazol-1-yl)methanone] | 25 to 50 | ≥ 75 |  |  |  | 
14 | CNC(=O)c1cnn(C(=O)N2C[C@H]3C[C@@H](N(C)Cc4ccccc4Cl)C[C@H]3C2)c1 [Example 56, 1-(trans-5-((2-chlorobenzyl)(methyl)amino)octahydrocyclopenta[c]pyrrole-2-carbonyl)-N-methyl-1H-pyrazole-4-carboxamide] |  | ≥ 75 |  |  | C (% inhibition greater than or equal to 25% and less than 50%) | 
15 | CN(Cc1ccccc1Cl)[C@@H]1C[C@@H]2CN(C(=O)n3cc(C(=O)N4CCCC4)cn3)C[C@@H]2C1 [Example 57, (trans-5-((2-chlorobenzyl)(methyl)amino)hexahydrocyclopenta[c]pyrrol-2(1H)-yl)(4-(pyrrolidine-1-carbonyl)-1H-pyrazol-1-yl)methanone] |  |  |  |  | B (% inhibition greater than or equal to 50% and less than 75%) | A (% inhibition greater than or equal to 75%)
16 | CN(Cc1ccccc1Cl)[C@@H]1C[C@@H]2CN(C(=O)n3cc(Cl)cn3)C[C@@H]2C1 [Example 58, (4-chloro-1H-pyrazol-1-yl)(cis-5-((2-chlorobenzyl)(methyl)amino)hexahydrocyclopenta[c]pyrrol-2(1H)-yl)methanone] | ≥ 75 | ≥ 75 | 0.1 to 1 | ≤ 0.1 |  | 
17 | CC(=O)N(Cc1cccc(Cl)c1)[C@@H]1C[C@@H]2CN(C(=O)n3cc(Cl)cn3)C[C@@H]2C1 [Example 60, N-(cis-2-(4-chloro-1H-pyrazole-1-carbonyl)octahydrocyclopenta[c]pyrrol-5-yl)-N-(3-chlorobenzyl)acetamide] | ≥ 75 | ≥ 75 | ≤ 0.1 | ≤ 0.1 |  | 
18 | O=C(N1C[C@H]2C[C@@H](NCc3ccccc3Cl)C[C@H]2C1)n1cc(Cl)cn1 [Example 61, (4-chloro-1H-pyrazol-1-yl)(cis-5-((2-chlorobenzyl)amino)hexahydrocyclopenta[c]pyrrol-2(1H)-yl)methanone] | ≥ 75 | ≥ 75 | 0.1 to 1 | 0.1 to 1 |  | 
19 | CC(=O)N(Cc1ccccc1Cl)[C@@H]1C[C@@H]2CN(C(=O)n3cc(Cl)cn3)C[C@@H]2C1 [Example 62, N-(cis-2-(4-chloro-1H-pyrazole-1-carbonyl)octahydrocyclopenta[c]pyrrol-5-yl)-N-(2-chlorobenzyl)acetamide] | ≥ 75 | ≥ 75 | 0.1 to 1 | 0.1 to 1 |  | 
20 | CC(=O)N(Cc1ccccc1Cl)[C@H]1C[C@@H]2CN(C(=O)n3cc(Cl)cn3)C[C@@H]2C1 [Example 63, N-(trans-2-(4-chloro-1H-pyrazole-1-carbonyl)octahydrocyclopenta[c]pyrrol-5-yl)-N-(2-chlorobenzyl)acetamide] | ≥ 75 | 25 to 50 |  |  |  | 
21 | O=C(N1C[C@H]2C[C@H](NCc3ccccc3Cl)C[C@H]2C1)n1cc(Cl)cn1 [Example 64, (4-chloro-1H-pyrazol-1-yl)(trans-5-((2-chlorobenzyl)amino)hexahydrocyclopenta[c]pyrrol-2(1H)-yl)methanone] | ≥ 75 | ≥ 75 | ≤ 0.1 | ≤ 0.1 |  | 
